# Data: patent US11236122B2, “Triterpene amine derivatives” (DFH THERAPEUTICS, priority 2018, dated 2022)
# Structures can show the parent of a compound that is named as a salt.
# Key:
# WT pNL4-3 = test: CA-SP1 accumulation assay, WT NL4-3; type: cell-based, HIV-1; conditions: HeLa or 293T cells; for % CA-SP1 Accumulation 100 nM NL4-3: 100 nM compound; for % CA-SP1 Accumulation 10 nM NL4-3: 10 nM compound
# Method: (§1) Cell culture, plasmids and transfections. The MT-4 T-cell line was maintained in RPMI-1640 medium supplemented with 10% (vol/vol) fetal bovine serum (FBS), 2 mM glutamine, 100 U/mL penicillin and 100 μg/mL streptomycin at 37° C. in a humidified 5% CO2 atmosphere. HeLa and 293T cells were maintained in Dulbecco's modified Eagle's medium (DMEM) supplemented with 5% (vol/vol) FBS, 2 mM glutamine, 100 U/mL penicillin and 100 μg/mL streptomycin. Molecular clones used in this study were WT pNL4-3 and the derivative encoding a Val-to-Ala mutation at SP1 residue 7, referred to as SP1-V7A. The MT-4 T-cell line was transfected the DEAE/dextran procedure; HeLa and 293T cells were transfected with linear polyethylenimine (L-PEI) or Lipofectamine 2000 (Invitrogen) as recommended by the supplier.
# (§2) CA-SP1 accumulation assay. For CA-SP1 accumulation assays, HeLa or 293T cells were transfected with WT pNL4-3 or the SP1-V7A derivative. At 24 h post-transfection, cells were starved in Met/Cys-free medium for 30 min and metabolically labeled with [^35S]Met/Cys-Pro-mix (Amersham) for 2-3 h. Maturation inhibitors were maintained in the cultures throughout the transfection and labeling period. Viruses were collected by ultracentrifugation at 99,000×g for 45-60 min. Virus pellets were resuspended in Triton X-100 lysis buffer [300 mM NaCl, 50 mM Tris-HCl (pH 7.5), 0.5% Triton X-100, 10 mM iodoacetamide, and protease inhibitor cocktail tablets (Roche)]. CA and CA-SP1 proteins were separated on 13.5-15% polyacrylamide gels by SDS-polyacrylamide gel electrophoresis, exposed to a phosphorimager plate (Fuji) and quantified by Quantity One software (Bio-Rad).
# pNL4-3 SP1-V7A = test: CA-SP1 accumulation assay, SP1-V7A derivative; type: cell-based, HIV-1; conditions: HeLa or 293T cells; for % CA-SP1 Accumulation 100 nM SP1 V7A: 100 nM compound; for % CA-SP1 Accumulation 10 nM SP1 V7A: 10 nM compound
# Method: as §1, §2
Structure (SMILES),% CA-SP1 Accumulation 100 nM NL4-3 (WT pNL4-3) [%],% CA-SP1 Accumulation 100 nM SP1 V7A (pNL4-3 SP1-V7A) [%],% CA-SP1 Accumulation 10 nM NL4-3 (WT pNL4-3) [%],% CA-SP1 Accumulation 10 nM SP1 V7A (pNL4-3 SP1-V7A)
"C=C(C)[C@@H]1CC[C@]2(CCNCCCN3CCCC3=O)CC[C@]3(C)[C@H](CC[C@@H]4[C@@]5(C)CC[C@H](OC(=O)CC(C)(C)CC(=O)O)C(C)(C)[C@@H]5CC[C@]43C)[C@@H]12 [Compound 51a, (3β)-17-[2-[[3-(2-Oxopyrrolidin-1-yl)propyl]amino]ethyl]-28-norlup-20(29)-en-3-ol, 3-(Hydrogen 3,3-Dimethylpentanedioate)]",62.0,18.0,–,–
"C=C(C)[C@@H]1CC[C@]2(CCNCCCN3CCCC3)CC[C@]3(C)[C@H](CC[C@@H]4[C@@]5(C)CC[C@H](OC(=O)CC(C)(C)C(=O)O)C(C)(C)[C@@H]5CC[C@]43C)[C@@H]12 [Compound 51z, (3β)-17-[2-[[3-(1-Pyrrolidinyl)propyl]amino]ethyl]-28-norlup-20(29)-en-3-ol, 3-(1-Hydrogen 2,2-Dimethylbutanedioate) Sulfate]",19.9,10.5,9.5,7.5%
"C=C(C)[C@@H]1CC[C@]2(CNCCN3CCN(S(C)(=O)=O)CC3)CC[C@]3(C)[C@H](CC[C@@H]4[C@@]5(C)CC[C@H](OC(=O)CC(C)(C)C(=O)O)C(C)(C)[C@@H]5CC[C@]43C)[C@@H]12 [Compound 51x, (3β)-28-[[2-[4-(Methylsulfonyl)piperazin-1-yl]ethyl]amino]lup-20(29)-en-3-ol, 3-(1-Hydrogen 2,2-Dimethylbutanedioate) Sulfate]",74.3,26.9,56.6,31.0%
"CN(C)CCCCNCC[C@]12CC[C@@H](C3(C)CC3)[C@@H]1[C@H]1CC[C@@H]3[C@@]4(C)CC[C@H](OC(=O)CC(C)(C)C(=O)O)C(C)(C)[C@@H]4CC[C@@]3(C)[C@]1(C)CC2 [Compound 51j, (3β)-17-[2-[[(4-Dimethylamino)butyl]amino]ethyl]-20,29-methano-28-norlupan-3-ol, 3-(1-Hydrogen 2,2-Dimethylbutanedioate)]",53.6,6.4,–,–
"C=C(C)[C@@H]1CC[C@]2(CCNCCN3CCN(Cc4ccc5ccccc5n4)CC3)CC[C@]3(C)[C@H](CC[C@@H]4[C@@]5(C)CC[C@H](OC(=O)CC(C)(C)C(=O)O)C(C)(C)[C@@H]5CC[C@]43C)[C@@H]12 [Compound 51t, (3β)-17-[2-[[2-[4-(2-Quinolinylmethyl)piperazin-1-yl]ethyl]amino]ethyl]-28-norlup-20(29)-en-3-ol, 3-(1-Hydrogen 2,2-Dimethylbutanedioate)]",–,–,56.1,18.6%
"C=C(C)[C@@H]1CC[C@]2(CCNCCN3CCC(O)CC3)CC[C@]3(C)[C@H](CC[C@@H]4[C@@]5(C)CC[C@H](OC(=O)CC(C)(C)C(=O)O)C(C)(C)[C@@H]5CC[C@]43C)[C@@H]12 [Compound 51ii, (3β)-17-[2-[[2-(4-Hydroxypiperidin-1-yl)ethyl]amino]ethyl]-28-norlup-20(29)-en-3-ol, 3-(1-Hydrogen 2,2-Dimethylbutanedioate)]",–,–,70.1,29.5 (3) %
"C=C(C)[C@@H]1CC[C@]2(CCCNCCCN3CCCC3)CC[C@]3(C)[C@H](CC[C@@H]4[C@@]5(C)CC[C@H](OC(=O)CC(C)(C)C(=O)O)C(C)(C)[C@@H]5CC[C@]43C)[C@@H]12 [Compound 51aa, (3β)-17-[3-[[3-(1-Pyrrolidinyl)propyl]amino]propyl]-28-norlup-20(29)-en-3-ol, 3-(1-Hydrogen 2,2-Dimethylbutanedioate) Sulfate]",45.2,14.4,12.5,5.3%
"C=C(C)[C@@H]1CC[C@]2(CNCCN3CCS(=O)(=O)CC3)CC[C@]3(C)[C@H](CC[C@@H]4[C@@]5(C)CC[C@H](OC(=O)CC(C)(C)C(=O)O)C(C)(C)[C@@H]5CC[C@]43C)[C@@H]12 [Compound 51y, (3β)-28-[[2-[(1,1-Dioxothiomorpholin-4-yl)]ethyl]amino]lup-20(29)-en-3-ol, 3-(1-Hydrogen 2,2-Dimethylbutanedioate) Sulfate]",69.4,28.1,56.4,28.5%
"C=C(C)[C@@H]1CC[C@]2(CCNCCN3CCC(S(C)(=O)=O)CC3)CC[C@]3(C)[C@H](CC[C@@H]4[C@@]5(C)CC[C@H](OC(=O)CC(C)(C)C(=O)O)C(C)(C)[C@@H]5CC[C@]43C)[C@@H]12 [Compound 51gg, (3β)-17-[2-[[2-[4-(Methylsulfonyl)piperidin-1-yl]ethyl]amino]ethyl]-28-norlup-20(29)-en-3-ol, 3-(1-Hydrogen 2,2-Dimethylbutanedioate)]",–,–,57.7,30.9%
"C=C(C)[C@@H]1CC[C@]2(CCNCCN3CCN(Cc4cccc5ccccc45)CC3)CC[C@]3(C)[C@H](CC[C@@H]4[C@@]5(C)CC[C@H](OC(=O)CC(C)(C)C(=O)O)C(C)(C)[C@@H]5CC[C@]43C)[C@@H]12 [Compound 51q, (3β)-17-[2-[[2-[4-(1-Naphthalenylmethyl)piperazin-1-yl]ethyl]amino]ethyl]-28-norlup-20(29)-en-3-ol, 3-(1-Hydrogen 2,2-Dimethylbutanedioate)]",–,–,26.8,11.6%
"C=C(C)[C@@H]1CC[C@]2(CCNCCN3CCN(CC4CCCCC4)CC3)CC[C@]3(C)[C@H](CC[C@@H]4[C@@]5(C)CC[C@H](OC(=O)CC(C)(C)C(=O)O)C(C)(C)[C@@H]5CC[C@]43C)[C@@H]12 [Compound 51s, (3β)-17-[2-[[2-[4-(Cyclohexylmethyl)piperazin-1-yl]ethyl]amino]ethyl]-28-norlup-20(29)-en-3-ol, 3-(1-Hydrogen 2,2-Dimethylbutanedioate)]",–,–,48.7,14.5%
"CN1CCN(CCCNCC[C@]23CC[C@@H](C4(C)CC4)[C@@H]2[C@H]2CC[C@@H]4[C@@]5(C)CC[C@H](OC(=O)CC(C)(C)C(=O)O)C(C)(C)[C@@H]5CC[C@@]4(C)[C@]2(C)CC3)CC1 [Compound 51i, (3β)-17-[2-[[3-(4-Methylpiperazin-1-yl)propyl]amino]ethyl]-20,29-methano-28-norlupan-3-ol, 3-(1-Hydrogen 2,2-Dimethylbutanedioate)]",71.9,22.0,–,–
"C=C(C)[C@@H]1CC[C@]2(CCNCCC(=O)N3CCN(C)CC3)CC[C@]3(C)[C@H](CC[C@@H]4[C@@]5(C)CC[C@H](OC(=O)CC(C)(C)CC(=O)O)C(C)(C)[C@@H]5CC[C@]43C)[C@@H]12 [Compound 51b, (3β)-17-[2-[[3-(4-Methylpiperazin-1-yl)-3-oxopropyl]amino]ethyl]-28-norlup-20(29)-en-3-ol, 3-(Hydrogen 3,3-Dimethylpentanedioate)]",58.0,21.0,–,–
